US20260217767A1, “NOVEL A4B7 THIOETHER PEPTIDE DIMER ANTAGONISTS” (Protagonist Therapeutics, Inc., priority 2014, published 2026)
Several values for one entry are separate records, joined by “and”; a condition that tells them apart may be missing. Identical values can stand only once. *1 amine or outer side, *2 acyl side, *3 side chain or, on linkers, in order; H or OH if unused. Where a SMILES comes first, the peptide text is derived from it. Bridges are numbered along the chain shown (N, C = ends). Roman numbers before positions name the chains, in order. [ ]: non-standard residue; d: D form. Bip = N[C@@H](Cc1ccc(-c2ccccc2)cc1)C(=O)O; 1Nal = N[C@@H](Cc1cccc2ccccc12)C(=O)O; Diglycolyl = O=C(COCC(=O)[*:2])[*:1]; NMeR = CN[C@@H](CCCNC(=N)N)C(=O)O; Tic = O=C(O)[C@@H]1Cc2ccccc2CN1; β3hE = N[C@@H](CCC(=O)O)CC(=O)O; X1 = O=C(c1ccccc1C[*:2])[*:1]; Pen = CC(C)(S)[C@H](N)C(=O)O

Assays:
α4β1 = biological target: T1, α4β1 (Homo sapiens, UniProt P05556+P13612); assay: α4β1-VCAM Competition ELISA; assay type: binding; conditions: thioether peptide dimers, Table 7; read-out: ELISA A4B1
T1 construct: purchased R&D Systems 5668-A4
Procedure, shortened: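 rh VCAM-1-Fc coated plates; α4β1 (final 60 nM) and peptide (final 100 μM) incubated 2 h at 37° C. in 50 mM Tris-HCl pH 7.6, 100 mM NaCl, 1 mM MnCl2 or MgCl2, 0.05% Tween-20. Bound integrin detected with anti-CD49d 9F10 and HRP anti-mouse IgG, TMB read at 450 nm.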

Jurkat E6.1 cells = Jurkat E6.1 cells (Homo sapiens, UniProt P05556+P13612); assay: α4β1-VCAM Cell Adhesion Assay; assay type: cell-based; conditions: thioether peptide dimers, Table 7; read-out: Cell Adhesion A4B1
Procedure: α4β1-VCAM Cell Adhesion Assay
Jurkat E6.1 cells (Sigma #88042803) were cultured in RPMI 1640 HEPES medium (Invitrogen #22400-089) supplemented with 10% serum (Fetal Bovine Serum, Invitrogen #16140-071), 1 mM sodium pyruvate (Invitrogen #11360-070), 2 mM L-glutamine (Invitrogen #25030-081) and Penicillin-Streptomycin (Invitrogen #15140-122) at 100 units of penicillin and 100 μg of streptomycin per ml. The cells were washed two times in DMEM medium (ATCC #30-2002) supplemented with 0.1% BSA, 10 mM HEPES pH 7 and 1 mM MnCl2. The cells were re-suspended in supplemented DMEM medium at a density of 4×10^6 cells/ml.
A Nunc MaxiSorp plate was coated with rh VCAM-1/CD106 Fc chimera (R&D #862-VC) at 400 ng per well in 50 μl per well in 1×PBS and incubated at 4° C. overnight. The solution was then removed by shaking, blocked with 250 μl per well PBS containing 1% BSA, and incubated at 37° C. for 1 hr. The solution was removed by shaking. Peptides were diluted by serial dilution in a final volume of 50 μl per well (2× concentration). To each well, 50 μl of cells (200,000 cells) were added and the plate was incubated at 37° C., 5% CO2 for 30-45 min to allow cell adhesion. The wells were washed manually three times (100 μl per wash) with supplemented DMEM. After the final wash, 100 μl/well of supplemented DMEM and 10 ul/well of MTT reagent (ATTC cat #30-1010K) were added. The plate was incubated at 37° C., 5% CO2 for 2-3 hrs until a purple precipitate is visible. 100 ul of Detergent Reagent (ATTC cat #30-1010K) is added to each well. The plate was covered from the light, wrapped in Parafilm to prevent evaporation, and left overnight at room temperature in the dark. The plate was shaken for 5 min and the absorbance at 570 nm is measured. To calculate the dose response, the absorbance value of control wells not containing cells was subtracted from each test well.

[1] = Simulated Intestinal Fluid (SIF) Stability Assay; assay type: in vitro ADME; conditions: 37° C., dimers, Table 7; for half-life / SIF (Porcine) (half-life, min): porcine pancreatin; for half-life at 22 μM: simulated intestinal fluid (SIF) with 1% porcine pancreatin, pH 6.5, porcine pancreatin
Procedure, shortened: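 Peptide at 22 μM final was incubated at 37° C in blank FaSSIF pH 6.5 with 1% porcine pancreatin. Timed samples were quenched in acetonitrile/methanol/formic acid with internal standard and analysed by LC-MS/MS. Half-lives came from first-order exponential fits of percent remaining.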

T1 sequence (P13612 34-977 limits assumed): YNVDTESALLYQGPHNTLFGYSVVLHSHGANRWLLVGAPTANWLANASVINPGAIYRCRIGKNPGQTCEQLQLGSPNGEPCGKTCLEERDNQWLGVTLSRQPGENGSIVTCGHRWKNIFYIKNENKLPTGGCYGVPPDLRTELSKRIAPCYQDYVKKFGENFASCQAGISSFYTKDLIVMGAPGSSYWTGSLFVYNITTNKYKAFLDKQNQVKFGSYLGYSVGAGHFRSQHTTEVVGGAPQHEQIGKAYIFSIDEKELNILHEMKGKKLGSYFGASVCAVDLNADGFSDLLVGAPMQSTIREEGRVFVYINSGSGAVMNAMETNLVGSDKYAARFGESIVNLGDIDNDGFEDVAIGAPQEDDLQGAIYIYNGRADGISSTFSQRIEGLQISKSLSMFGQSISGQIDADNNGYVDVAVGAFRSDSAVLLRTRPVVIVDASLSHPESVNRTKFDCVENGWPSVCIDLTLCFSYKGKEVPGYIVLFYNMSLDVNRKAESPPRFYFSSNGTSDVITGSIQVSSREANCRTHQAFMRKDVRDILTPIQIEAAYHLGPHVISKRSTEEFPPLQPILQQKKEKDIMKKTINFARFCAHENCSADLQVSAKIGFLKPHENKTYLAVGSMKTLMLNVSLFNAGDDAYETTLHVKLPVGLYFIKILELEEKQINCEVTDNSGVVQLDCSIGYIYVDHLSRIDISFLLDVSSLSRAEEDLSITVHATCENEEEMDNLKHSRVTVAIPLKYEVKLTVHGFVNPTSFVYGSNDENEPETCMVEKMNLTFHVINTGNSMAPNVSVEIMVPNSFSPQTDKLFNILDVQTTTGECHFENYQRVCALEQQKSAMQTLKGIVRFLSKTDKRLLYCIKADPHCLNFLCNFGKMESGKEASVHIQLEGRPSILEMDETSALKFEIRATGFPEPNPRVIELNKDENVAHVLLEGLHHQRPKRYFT
T1 sequence (P05556 21-728 limits assumed): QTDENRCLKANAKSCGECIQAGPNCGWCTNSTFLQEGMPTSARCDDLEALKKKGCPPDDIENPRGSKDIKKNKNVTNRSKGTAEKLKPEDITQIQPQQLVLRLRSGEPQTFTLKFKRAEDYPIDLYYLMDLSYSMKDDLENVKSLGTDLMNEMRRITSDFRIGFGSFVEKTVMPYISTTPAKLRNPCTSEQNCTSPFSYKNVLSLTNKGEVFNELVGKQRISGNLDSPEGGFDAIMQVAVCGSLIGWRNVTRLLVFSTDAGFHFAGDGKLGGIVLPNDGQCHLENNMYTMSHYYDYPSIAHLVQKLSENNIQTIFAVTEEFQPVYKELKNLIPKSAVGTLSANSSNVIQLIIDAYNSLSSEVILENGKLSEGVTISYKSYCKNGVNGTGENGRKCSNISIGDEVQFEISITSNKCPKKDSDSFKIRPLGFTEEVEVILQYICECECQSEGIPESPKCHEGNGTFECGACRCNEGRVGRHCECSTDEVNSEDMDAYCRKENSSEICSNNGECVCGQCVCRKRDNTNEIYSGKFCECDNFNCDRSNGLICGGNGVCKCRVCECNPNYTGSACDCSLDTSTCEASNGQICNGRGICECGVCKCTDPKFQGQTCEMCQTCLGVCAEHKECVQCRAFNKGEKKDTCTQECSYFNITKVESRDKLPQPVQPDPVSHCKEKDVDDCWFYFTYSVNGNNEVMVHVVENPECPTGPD
Sequence of Jurkat E6.1 cells (P13612 34-1032): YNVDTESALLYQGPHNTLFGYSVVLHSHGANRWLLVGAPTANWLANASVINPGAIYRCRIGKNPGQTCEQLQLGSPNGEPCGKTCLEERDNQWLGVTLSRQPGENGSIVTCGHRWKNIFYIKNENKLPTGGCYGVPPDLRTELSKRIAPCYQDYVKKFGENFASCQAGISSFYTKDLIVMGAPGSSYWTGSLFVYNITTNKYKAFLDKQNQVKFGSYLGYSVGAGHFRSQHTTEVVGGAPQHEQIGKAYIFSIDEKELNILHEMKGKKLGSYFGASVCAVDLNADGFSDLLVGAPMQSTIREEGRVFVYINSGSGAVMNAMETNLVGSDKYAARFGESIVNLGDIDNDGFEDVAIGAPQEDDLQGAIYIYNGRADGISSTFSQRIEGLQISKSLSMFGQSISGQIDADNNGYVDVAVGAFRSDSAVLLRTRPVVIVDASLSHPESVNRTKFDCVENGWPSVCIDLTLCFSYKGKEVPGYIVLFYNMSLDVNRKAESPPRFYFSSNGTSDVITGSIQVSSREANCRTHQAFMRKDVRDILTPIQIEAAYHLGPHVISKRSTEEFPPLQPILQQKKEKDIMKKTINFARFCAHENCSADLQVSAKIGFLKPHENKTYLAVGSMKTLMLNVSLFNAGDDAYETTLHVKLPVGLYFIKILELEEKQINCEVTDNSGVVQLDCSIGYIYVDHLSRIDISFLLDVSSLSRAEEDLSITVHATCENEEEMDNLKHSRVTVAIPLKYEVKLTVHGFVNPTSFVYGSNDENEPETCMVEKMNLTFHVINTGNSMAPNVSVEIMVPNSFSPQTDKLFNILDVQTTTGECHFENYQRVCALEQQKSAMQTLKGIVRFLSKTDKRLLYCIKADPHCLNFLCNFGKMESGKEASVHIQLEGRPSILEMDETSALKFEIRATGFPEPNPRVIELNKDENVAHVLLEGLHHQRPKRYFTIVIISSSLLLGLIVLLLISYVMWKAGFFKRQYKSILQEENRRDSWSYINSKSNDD
Sequence of Jurkat E6.1 cells (P05556 21-798): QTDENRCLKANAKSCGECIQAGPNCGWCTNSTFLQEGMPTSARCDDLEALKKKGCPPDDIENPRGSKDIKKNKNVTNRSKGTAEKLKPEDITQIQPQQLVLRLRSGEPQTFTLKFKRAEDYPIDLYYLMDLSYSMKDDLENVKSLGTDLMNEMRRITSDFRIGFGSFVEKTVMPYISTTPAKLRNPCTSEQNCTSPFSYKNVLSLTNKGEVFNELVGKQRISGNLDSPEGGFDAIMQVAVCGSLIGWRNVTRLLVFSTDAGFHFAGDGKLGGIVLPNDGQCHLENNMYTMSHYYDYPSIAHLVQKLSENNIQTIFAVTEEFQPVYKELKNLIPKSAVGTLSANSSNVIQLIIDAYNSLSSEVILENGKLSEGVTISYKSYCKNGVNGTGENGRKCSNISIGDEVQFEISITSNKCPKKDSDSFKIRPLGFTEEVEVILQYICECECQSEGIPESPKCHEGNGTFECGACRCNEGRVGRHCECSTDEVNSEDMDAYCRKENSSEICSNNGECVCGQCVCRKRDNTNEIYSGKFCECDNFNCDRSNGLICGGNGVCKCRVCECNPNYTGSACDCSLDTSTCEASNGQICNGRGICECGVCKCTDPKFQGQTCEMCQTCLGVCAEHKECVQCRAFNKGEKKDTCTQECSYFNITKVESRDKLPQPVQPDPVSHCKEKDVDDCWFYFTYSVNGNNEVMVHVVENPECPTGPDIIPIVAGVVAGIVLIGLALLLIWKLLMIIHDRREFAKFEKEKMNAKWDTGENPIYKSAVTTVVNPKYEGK

half-life at 22 μM ([1]; pig) [h]	half-life ([1]; simulated gi fluid) [h]	Compound	IC50 (α4β1) [nM]	IC50 (Jurkat E6.1 cells) [nM]	half-life ([1]; pig) [h]	SIF (Porcine) (half-life, min) [1]
–	–	CC(C)C[C@@H]1NC(=O)[C@H]([C@@H](C)O)NC(=O)[C@H](CC(=O)O)NC(=O)[C@H](CO)NC(=O)[C@H](CCCNC(=N)N)N(C)C(=O)c2ccccc2CSC[C@H](C(=O)N[C@@H](Cc2c[nH]c3ccccc23)C(=O)N[C@@H](CCC(=O)O)CC(=O)N[C@H](CCCCNC(=O)COCC(=O)NCCCC[C@@H](NC(=O)C[C@H](CCC(=O)O)NC(=O)[C@H](Cc2c[nH]c3ccccc23)NC(=O)[C@H]2CSCc3ccccc3C(=O)N(C)[C@@H](CCCNC(=N)N)C(=O)N[C@@H](CO)C(=O)N[C@@H](CC(=O)O)C(=O)N[C@@H]([C@@H](C)O)C(=O)N[C@@H](CC(C)C)C(=O)N2)C(N)=O)C(N)=O)NC1=O [compound 156] (I: [NMeR]SDTL[dC]W[β3hE][dK]-NH2 / II: [NMeR]SDTL[dC]W[β3hE][dK]-NH2; linker I:9-II:9 via Diglycolyl; linker I:N-I:6, II:N-II:6 via X1)	25 to 100	> 100000	> 3	–
> 3	–	CC(C)C[C@@H]1NC(=O)[C@H]([C@@H](C)O)NC(=O)[C@H](CC(=O)O)NC(=O)[C@H](CO)NC(=O)[C@H](CCCNC(=N)N)N(C)C(=O)c2ccccc2CSC(C)(C)[C@@H](C(=O)N[C@@H](Cc2cccc3ccccc23)C(=O)N[C@H](CCC(=O)O)C(=O)N[C@H](CCCCNC(=O)COCC(=O)NCCCC[C@@H](NC(=O)[C@@H](CCC(=O)O)NC(=O)[C@H](Cc2cccc3ccccc23)NC(=O)[C@H]2NC(=O)[C@H](CC(C)C)NC(=O)[C@H]([C@@H](C)O)NC(=O)[C@H](CC(=O)O)NC(=O)[C@H](CO)NC(=O)[C@H](CCCNC(=N)N)N(C)C(=O)c3ccccc3CSC2(C)C)C(N)=O)C(N)=O)NC1=O [compound 158] (I: [NMeR]SDTL[Pen][1Nal][dE][dK]-NH2 / II: [NMeR]SDTL[Pen][1Nal][dE][dK]-NH2; linker I:9-II:9 via Diglycolyl; linker I:N-I:6, II:N-II:6 via X1)	100 to 1000	> 100000	–	–
–	< 0.333	CC(C)C[C@@H]1NC(=O)[C@H]([C@@H](C)O)NC(=O)[C@H](CC(=O)O)NC(=O)[C@H](CO)NC(=O)[C@H](CCCNC(=N)N)N(C)C(=O)c2ccccc2CSC(C)(C)[C@@H](C(=O)N[C@@H](Cc2cccc3ccccc23)C(=O)N[C@@H](CCC(=O)O)C(=O)N[C@H](CCCCNC(=O)COCC(=O)NCCCC[C@@H](NC(=O)[C@H](CCC(=O)O)NC(=O)[C@H](Cc2cccc3ccccc23)NC(=O)[C@H]2NC(=O)[C@H](CC(C)C)NC(=O)[C@H]([C@@H](C)O)NC(=O)[C@H](CC(=O)O)NC(=O)[C@H](CO)NC(=O)[C@H](CCCNC(=N)N)N(C)C(=O)c3ccccc3CSC2(C)C)C(N)=O)C(N)=O)NC1=O [compound 167] (I: [NMeR]SDTL[Pen][1Nal]E[dK]-NH2 / II: [NMeR]SDTL[Pen][1Nal]E[dK]-NH2; linker I:9-II:9 via Diglycolyl; linker I:N-I:6, II:N-II:6 via X1)	25 to 100	> 100000	–	–
> 3	–	CC(C)C[C@@H]1NC(=O)[C@H]([C@@H](C)O)NC(=O)[C@H](CC(=O)O)NC(=O)[C@H](CO)NC(=O)[C@H](CCCNC(=N)N)N(C)C(=O)c2ccccc2CSC[C@@H](C(=O)N2Cc3ccccc3C[C@H]2C(=O)N[C@H](CCC(=O)O)C(=O)N[C@H](CCCCNC(=O)COCC(=O)NCCCC[C@@H](NC(=O)[C@@H](CCC(=O)O)NC(=O)[C@@H]2Cc3ccccc3CN2C(=O)[C@@H]2CSCc3ccccc3C(=O)N(C)[C@@H](CCCNC(=N)N)C(=O)N[C@@H](CO)C(=O)N[C@@H](CC(=O)O)C(=O)N[C@@H]([C@@H](C)O)C(=O)N[C@@H](CC(C)C)C(=O)N2)C(N)=O)C(N)=O)NC1=O [compound 184] (I: [NMeR]SDTLC[Tic][dE][dK]-NH2 / II: [NMeR]SDTLC[Tic][dE][dK]-NH2; linker I:9-II:9 via Diglycolyl; linker I:N-I:6, II:N-II:6 via X1)	100 to 1000	> 100000	–	>180 min
–	–	CC(C)C[C@@H]1NC(=O)[C@H]([C@@H](C)O)NC(=O)[C@H](CC(=O)O)NC(=O)[C@H](CO)NC(=O)[C@H](CCCNC(=N)N)N(C)C(=O)c2ccccc2CSC(C)(C)[C@@H](C(=O)N[C@@H](Cc2ccccc2)C(=O)N[C@H](CCC(=O)O)C(=O)N[C@H](CCCCNC(=O)COCC(=O)NCCCC[C@@H](NC(=O)[C@@H](CCC(=O)O)NC(=O)[C@H](Cc2ccccc2)NC(=O)[C@H]2NC(=O)[C@H](CC(C)C)NC(=O)[C@H]([C@@H](C)O)NC(=O)[C@H](CC(=O)O)NC(=O)[C@H](CO)NC(=O)[C@H](CCCNC(=N)N)N(C)C(=O)c3ccccc3CSC2(C)C)C(=O)O)C(=O)O)NC1=O [compound 204] (I: [NMeR]SDTL[Pen]F[dE][dK]-OH / II: [NMeR]SDTL[Pen]F[dE][dK]-OH; linker I:9-II:9 via Diglycolyl; linker I:N-I:6, II:N-II:6 via X1)	100 to 1000	> 100000	> 3	–
–	–	CC(C)C[C@@H]1NC(=O)[C@H]([C@@H](C)O)NC(=O)[C@H](CC(=O)O)NC(=O)[C@H](CO)NC(=O)[C@H](CCCNC(=N)N)N(C)C(=O)c2ccccc2CSC[C@@H](C(=O)N2Cc3ccccc3C[C@H]2C(=O)N[C@H](CCC(=O)O)C(=O)N[C@H](CCCCNC(=O)COCC(=O)NCCCC[C@@H](NC(=O)[C@@H](CCC(=O)O)NC(=O)[C@@H]2Cc3ccccc3CN2C(=O)[C@@H]2CSCc3ccccc3C(=O)N(C)[C@@H](CCCNC(=N)N)C(=O)N[C@@H](CO)C(=O)N[C@@H](CC(=O)O)C(=O)N[C@@H]([C@@H](C)O)C(=O)N[C@@H](CC(C)C)C(=O)N2)C(=O)O)C(=O)O)NC1=O [compound 207] (I: [NMeR]SDTLC[Tic][dE][dK]-OH / II: [NMeR]SDTLC[Tic][dE][dK]-OH; linker I:9-II:9 via Diglycolyl; linker I:N-I:6, II:N-II:6 via X1)	100 to 1000	> 100000	> 3	–
–	–	CC(C)C[C@@H]1NC(=O)[C@H]([C@@H](C)O)NC(=O)[C@H](CC(=O)O)NC(=O)[C@H](CO)NC(=O)[C@H](CCCNC(=N)N)N(C)C(=O)c2ccccc2CSC(C)(C)[C@@H](C(=O)N[C@@H](Cc2ccc(-c3ccccc3)cc2)C(=O)N[C@H](CCC(=O)O)C(=O)N[C@H](CCCCNC(=O)COCC(=O)NCCCC[C@@H](NC(=O)[C@@H](CCC(=O)O)NC(=O)[C@H](Cc2ccc(-c3ccccc3)cc2)NC(=O)[C@H]2NC(=O)[C@H](CC(C)C)NC(=O)[C@H]([C@@H](C)O)NC(=O)[C@H](CC(=O)O)NC(=O)[C@H](CO)NC(=O)[C@H](CCCNC(=N)N)N(C)C(=O)c3ccccc3CSC2(C)C)C(=O)O)C(=O)O)NC1=O [compound 208] (I: [NMeR]SDTL[Pen][Bip][dE][dK]-OH / II: [NMeR]SDTL[Pen][Bip][dE][dK]-OH; linker I:9-II:9 via Diglycolyl; linker I:N-I:6, II:N-II:6 via X1)	25 to 100	> 100000	> 3	–

Compound	half-life at 22 μM ([1]; pig) [h]	half-life ([1]; simulated gi fluid) [h]	IC50 (α4β1) [nM]	IC50 (Jurkat E6.1 cells) [nM]	half-life ([1]; pig) [h]	SIF (Porcine) (half-life, min) [1]
CC(C)C[C@@H]1NC(=O)[C@H]([C@@H](C)O)NC(=O)[C@H](CC(=O)O)NC(=O)[C@H](CO)NC(=O)[C@H](CCCNC(=N)N)N(C)C(=O)c2ccccc2CSC(C)(C)[C@@H](C(=O)N[C@@H](Cc2ccc(-c3ccccc3)cc2)C(=O)N[C@H](CCC(=O)O)C(=O)N[C@H](CCCCN)C(N)=O)NC1=O [compound 178] (HELM PEPTIDE1{[meR].S.D.T.L.[Pen].[O=C([C@H](Cc1ccc(-c2ccccc2)cc1)N[*:1])[*:2]].[dE].[dK].[am]}|CHEM1{[O=C(c1ccccc1C[*:2])[*:1]]}$PEPTIDE1,CHEM1,1:R1-1:R1|PEPTIDE1,CHEM1,6:R3-1:R2$$$V2.0)	> 3	–	100 to 1000	> 1000	–	>180 (266), min and >180 min
